Patent publication US20150141460A1, “Anti-inflammatory Compositions” (Cambridge Enterprise Limited, priority 2007, published 2015)
pEC50: −log10 of the molar value. Like-named read-outs stand apart in the source and are kept apart here. Blank lines part the entries; values can stand above or below the compound they belong to.

Key:
[1] = Pharmacokinetics following a single dose in rat (1 mg/kg iv, 3 mg/kg oral), LC-MS/MS, one-compartment model; assay type: in vivo; conditions: for bioavailability / clearance / Vd / half-life: plasma; for bioavailability: 3 mg/kg oral in 1% CMC vs 1 mg/kg iv, one-compartment model, read-out: F (%) oral bioavailability; for clearance / Vd / half-life: iv, 1 mg/kg; for Vd: read-out: Vss (L/kg) volume of distribution; for AUC(0-t): blood, single oral dose 3 mg/kg in 1% CMC, Tables 7-9, read-out: Exposure (min · ng/ml), oral exposure AUC 0-t (converted)
Protocol: Compounds were administered as a single dose (either 1 mg/kg bodyweight in 5% DMSO via the intravenous route or 3 mg/kg in 1% carboxymethylcellulose via the oral route) to three adult rats (using different rats for each compound and each route of administration).
Blood was then sampled at various time points (including just prior to dose administration) out to 24 hrs post dose, and the level of the various compounds was assessed using a validated LC-MS/MS assay. Briefly, 3-5 μl of the deproteinised sample was applied to a Waters Atlantis (C18 20×2.1 mm, 3 μm bead size) reverse phase chromatography column equilibrated in 0.1% formic acid in 95:5 water:actetonitrile. Over 3.5 minutes bound material was gradient eluted reaching 0.1% formic acid in 5:95 water:acetonitrile, followed by a step gradient back to 0.1% formic acid in 95:5 water:acetonitrile. The column eluent was then directed to an Applied Biosystems API 4000/3200 QTrap MS/MS mass spectrometer, with a TurboIonspray™ ion source operating in positive ion mode. The interface temperature was set at 650° C., with a 40 ms dwell time for each MRM transition, monitoring the following ions:
The internal standard in each determination was the related compound (S)-3-(2′,2′-dimethyl-propanoylamino)-caprolactam, which was spiked into the sample prior to deproteinization. The lower limit of quantitation (LLOQ) for this assay was 2.4 ng/ml for each compound except (I′), where it was 38.1 ng/ml.
Following LC-MS/MS analysis of each collected sample, the pharmacokinetic disposition of the compound was modelled using Kinetica software, a well known software package for such applications.
Compounds (VI) and (VII) were subject to pharmacokinetic analysis in rat using exactly the same protocols previous applied for compounds (I) through (V) in example 1.
We therefore subjected (VIII) to pharmacokinetic analysis in rat using exactly the same protocols previous applied for compounds (I′) through (VII) in examples 1 and 7.
The isolated (R)-enantiomer of (I) was therefore synthesised (exactly as described herein for the isolated (S)-enantiomer, but replacing the (S)-ornithine starting material with commercially available (R)-ornithine of high stereochemical purity), and the PK properties of this agent, in rat, was determined using the identical methodology described above (see Examples 1, 7 and 8).

[2] = Identification of the primary metabolites in pooled rat urine by LC-MS-MS; assay type: in vivo; conditions: single oral dose 3 mg/kg in 1% CMC, pooled urine over 24 hrs, qualitative
Protocol: (§1) Urine was collected from rats exposed to a single oral dose (3 mg/kg in 1% CMC) of each compound over a 24 hour period in metabolic cages. The pooled urine sample was then subjected to full scan mass spectral analysis, using the same LC-MS conditions as described in example 1 above. Further MS-MS analysis of the product ions was then performed, and likely fragmentations/re-arrangements assigned from the publicly available Metabolite ID database.
For the major metabolites, the assigned structures were confirmed by synthesis of authentic samples, using methods well known in the art, which were subject to LC-MS-MS analysis under the same conditions as the urine samples.
Note that metabolite ID studies provide only qualitative estimates of the relative amounts of the different metabolites present, and separately validated assays with appropriate internal standards would be required to quantitate each metabolite species.

[3] = Distribution of unchanged compound into tissues and urine 24 hrs after a single dose in rat; assay type: in vivo
Protocol: as §1
To provide a quantitative estimate of the degree of metabolism suffered by each of the compounds tested, the amount of unchanged parent compound in urine was measured using the same validated LC-MS assay described in example 1, using (S)-3-(2′,2′-dimethylpropanoylamino)-caprolactam as an internal standard. In addition, the level of compounds in various target tissues was also determined.

[4] = Stability in serum in vitro; assay type: in vitro ADME; conditions: human serum; 37° C.
Description: As an approach to identifying such stable analogs, various derivatives of (S)-3-(undec-10-enoyl)-aminoglutarimide have been tested for their stability in serum.

[5] = Solubility as observed (water, dosing vehicle); assay type: physicochemical; conditions: 5% DMSO in saline
[6] = tested on: LPS-induced TNF-α production; test: Sub-lethal LPS-induced endotoxemia in mice, serum TNF-α by ELISA; assay type: in vivo; conditions: for inhibition of LPS-induced TNF-α production (reference agents, previously shown): mice, dose not stated
Protocol: FIGS. 5A-5E show representative dose response curves for the inhibition of LPS induced TNF-α production in vivo in a murine model of sub-lethal endotoxemia. In each experiment, groups of six mice received pre-treatment with the five compounds (FIG. 5A: (II); FIG. 5B: (III); FIG. 5C: (V); FIG. 5D: (I′) and FIG. 5E: (IV)) at various doses, via either the oral route (circles) or subcutaneous route (triangles). 30-60 mins later, animals were challenged with LPS via the intraperitoneal route, and serum was prepared from a terminal bleed 3 hours later. The level of TNF-α in the blood was measured by ELISA, and the degree of inhibition of LPS-induced TNF-α production (calculated as the concentration of TNF-α in mice exposed to LPS minus the concentration of TNF-α in mice which received a sham exposure to endotoxin-free PBS) is shown on the Y-axis of each graph as the mean of six animals, with whiskers representing SEMs. The concentration of TNF-α in mice receiving LPS but no BSCI treatment was typically 5,000 to 6,000 pg/ml on average (compared to <10 pg/ml in unchallenged mice). The ED50 was estimated by linear interpolation of the presented graphs. The X-axis of each graph represents the dose of each compound administered to each mouse in the group in units of mg (1E-07 to 1).
In this assay, mice are given a non-specific pro-inflammatory challenge using bacterial endotoxin (LPS), and the extent of the systemic inflammatory response (measured by serum levels of the central pro-inflammatory cytokine TNF-α, which is essentially absent from the blood under normal conditions, but is rapidly elevated in response to a wide range of inflammatory stimuli). We have selected this model even though it is not, itself, a particularly close model of any human inflammatory disease condition, but because TNF-α is known to be important in very many diseases (including rheumatoid arthritis, autoimmune disorders, Crohn's Disease, atherosclerosis, asthma and many more). Consequently, agents which suppress TNF-α production are already used clinically (e.g. Enbrel™ and other anti-TNF-α antibody products) to treat a wide range of such diseases.
Mice (in groups of 6) were pretreated with various doses of each compound, either by the subcutaneous route 30 mins prior to LPS challenge, or by the oral route (via gavage) 60 mins prior to LPS. The mice were then challenged with an intraperitoneal injection of 750 μg of bacterial LPS and sacrificed 3 hours later. Serum was prepared from a terminal bleed by cardiac puncture, and the concentration of TNF-α is determined by ELISA (R&D Systems). In each experiment, a group of 6 mice receive no LPS to act as a negative control, and a second group receive only LPS (with no candidate inhibitor). […]

[7] = tested on: chemokine-induced migration; conditions: read-out: ED50 inhibition of chemokine-induced migration in vitro; cited from earlier work
[8] = tested on: leukocytes in BAL fluid; test: Ovalbumin-induced lung inflammation model of asthma, cell counts in BAL fluid; assay type: in vivo, Brown Norway rats; conditions: 30 mg/kg daily via the oral route
Description: Bars represent mean cell counts, shown on the Y axis in units of 10^6 cells, for groups of […] with whiskers representing SEM; * p<0.01 versus ‘sensitised’ using Student's unpaired t-test assuming equal variance, with two tails). The horizontal line represents the average number of leukocytes present in BAL fluid from the lungs of unchallenged rats. All rats in the remaining three groups received the same sensitisation and challenge regimen, but were either treated with vehicle only (‘Sensitised’), or with compound (I′) at 0.3 mg/kg bodyweight or with monteleukast (‘Singulair™’) at 30 mg/kg bodyweight, all administered daily by oral gavage.
Adult Brown Norway rats (200-300 g body weight; n=10 per group) were sensitised by a single intraperitoneal injection of 0.1 mg Ovalbumin on day 0. Each rat then received an intratracheal challenge with a solution of 1% ovalbumin (w/v) on day 8, and with 2% ovalbumin (w/v) on days 15, 18 and 21. The animals were then sacrificed 3 hours after the final challenge on day 21. […]
On sacrifice, total lung leukocyate recruitment was assessed by performing a broncheoalveolar lavage (BAL) using 4 lots of 3 ml sterile phosphate-buffered saline introduced through a tracheal cannula. For each animal, the BAL washes were combined, and the total cell population counted (using a haemocytometer). […]

[9] = intravenous dosing 1 mg/kg, averaged across three rats, read-out: t1/2 (mins) dominant plasma half-life

bioavailability ([1]; averaged across three rats): 5% | clearance ([1]; averaged across three rats): 55 mL/min/kg | Vd ([1]; averaged across three rats): 0.6 L/kg | half-life [1, 9]: 11 min | major metabolites / route of metabolism detected in urine [2]: cytochrome P450-mediated hydroxylation
Structure (SMILES): CC1(C(=O)N[C@H]2CCCCNC2=O)CCCCC1 [(III), 3-(1′-methylcyclohexylcarbonylamino)-caprolactam]

Urine (ng/ml) unchanged parent compound ([3]; 24 hrs after a single oral dose 3 mg/kg in 1% CMC): 1010 ng/mL | unchanged parent compound recovered in urine, % of the injected dose ([3]; single oral dose 3 mg/kg in 1% CMC, 24 hrs): less than 10%
Structure (SMILES): CC(C)(C)S(=O)(=O)N[C@H]1CCCCNC1=O [(IV), 3-(1′,1′-dimethylethylsulfonylamino)-caprolactam]
major metabolites / route of metabolism detected in urine [2]: the major metabolite could not be identified

time completely stable in serum [4]: at least 7 days
Structure (SMILES): C=CCCCCCCCCC(=O)[C@@H]1CCCNC1=O [(S)-3-(undec-10-enoyl)-tetrahydropyridin-2-one]

AUC(0-t) [1]: 542 ng·h/mL | bioavailability ([1]; averaged across three rats): 35% | clearance ([1]; averaged across three rats): 31.1 mL/min/kg | Vd ([1]; averaged across three rats): 0.7 L/kg | half-life [1, 9]: 20 min | half-life ([1]; read-out: plasma half-life): < 60 min
Structure (SMILES): O=C1NCCCC1NC(=O)C12CC3CC(CC(C3)C1)C2 (stereo not drawn) [(VII), 3-(adamanatane-1-carbonylamino)-tetrahydropyridin-2-one]

AUC(0-t) [1]: 183 ng·h/mL | bioavailability ([1]; averaged across three rats): 16% | clearance ([1]; averaged across three rats): 40.3 mL/min/kg | Vd ([1]; averaged across three rats): 1.95 L/kg | half-life [1, 9]: 46 min | half-life ([1]; read-out: plasma half-life): < 60 min | solubility in iv dosing vehicle [5]: completely insoluble
Structure (SMILES): CCCCCCCCCCC(C)(C)C(=O)NC1CCCNC1=O (stereo not drawn) [Compound (VI), 3-(2′,2′-dimethyldodecanoylamino)-tetrahydropyridin-2-one]

Structure (SMILES): C=CCCCCCCCCC(=O)N[C@H]1CCC(=O)NC1=O [NR58,4, (S)-3-(undec-10-enoyl)-aminoglutarimide]
fold less potent in vivo than 3-(2′,2′-dimethylpropanoylamino)-tetrahydropyridin-2-one ([6]; models of acute inflammation such as LPS-induced endotoxemia): at least 250 fold | pEC50 [7]: 8.30

Structure (SMILES): C[C@@H]1C[C@H]2[C@@H]3CCC4=CC(=O)C=C[C@]4(C)[C@@]3(F)[C@@H](O)C[C@]2(C)[C@@]1(O)C(=O)CO [dexamethasone]
inhibition of LPS-induced TNF-α production (reference agents, previously shown) [6]: at least 90%

Structure (SMILES): CC(C)(O)c1ccccc1CC[C@@H](SCC1(CC(=O)O)CC1)c1cccc(/C=C/c2ccc3ccc(Cl)cc3n2)c1 [monteleukast]
effect on the number of leukocytes in the BAL washes [8]: significantly reduced the number of leukocytes in the BAL washes

Structure (SMILES): O=C1CCC(N2C(=O)c3ccccc3C2=O)C(=O)N1 (stereo not drawn) [thalidomide]
inhibition of LPS-induced TNF-α production (reference agents, previously shown) [6]: about 60%
